Measurements taken from US20190047966A1, “NOVEL COMPOUND AND PHARMACOLOGICALLY ACCEPTABLE SALT THEREOF” (MEIJI SEIKA PHARMA CO., LTD., priority 2016, published 2019).

Experiments:
[1] = biological target: human histamine H1 receptor (Homo sapiens, UniProt P35367); assay: Evaluation of Human H1 Receptor Affinity ([3H]pyrilamine binding); design: purchased PerkinElmer Inc; host or cells: CHO-K1; settings: inhibition constant Ki, CHO-K1 membrane preparation
Summary of the method: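 Ki values are Cheng-Prusoff conversions of IC50 (Kd 1.1 nM) from radioligand displacement of 1.2 nM [3H]pyrilamine, with 1.0 μM pyrilamine defining nonspecific binding.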

[2] = biological target: T1, human histamine H4 receptor (Homo sapiens, UniProt Q9H3N8); assay: Evaluation of Human H4 Receptor Affinity ([3H]histamine binding); settings: inhibition constant Ki, CHO-K1 membrane preparation, read-out: Evaluation of H4 Receptor Affinity
T1 construct: purchased PerkinElmer Inc; host or cells: CHO-K1
T1 sequence (Q9H3N8 whole entry): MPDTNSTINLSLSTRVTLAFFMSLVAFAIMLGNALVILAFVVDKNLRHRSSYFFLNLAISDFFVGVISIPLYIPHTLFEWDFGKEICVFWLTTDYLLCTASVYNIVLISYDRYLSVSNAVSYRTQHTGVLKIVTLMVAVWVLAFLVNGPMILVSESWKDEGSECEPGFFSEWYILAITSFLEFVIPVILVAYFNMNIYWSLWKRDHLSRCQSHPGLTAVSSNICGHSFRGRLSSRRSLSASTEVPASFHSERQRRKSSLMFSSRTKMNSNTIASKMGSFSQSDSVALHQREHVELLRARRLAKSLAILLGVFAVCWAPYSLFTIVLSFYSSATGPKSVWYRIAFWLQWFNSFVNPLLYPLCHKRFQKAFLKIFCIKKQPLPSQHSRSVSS
Summary of the method: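 Membranes from CHO-K1 cells expressing human H4 receptor incubated with 8.2 nM [3H]histamine and compound for 90 min at 25 °C in 50 mM Tris-HCl pH 7.4, 1.25 mM EDTA, then filtered and counted. Nonspecific binding defined with 1.0 μM histamine; Ki from IC50 by Cheng-Prusoff using Kd 5.7 nM.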

human histamine H1 receptor, sequence (P35367 whole entry): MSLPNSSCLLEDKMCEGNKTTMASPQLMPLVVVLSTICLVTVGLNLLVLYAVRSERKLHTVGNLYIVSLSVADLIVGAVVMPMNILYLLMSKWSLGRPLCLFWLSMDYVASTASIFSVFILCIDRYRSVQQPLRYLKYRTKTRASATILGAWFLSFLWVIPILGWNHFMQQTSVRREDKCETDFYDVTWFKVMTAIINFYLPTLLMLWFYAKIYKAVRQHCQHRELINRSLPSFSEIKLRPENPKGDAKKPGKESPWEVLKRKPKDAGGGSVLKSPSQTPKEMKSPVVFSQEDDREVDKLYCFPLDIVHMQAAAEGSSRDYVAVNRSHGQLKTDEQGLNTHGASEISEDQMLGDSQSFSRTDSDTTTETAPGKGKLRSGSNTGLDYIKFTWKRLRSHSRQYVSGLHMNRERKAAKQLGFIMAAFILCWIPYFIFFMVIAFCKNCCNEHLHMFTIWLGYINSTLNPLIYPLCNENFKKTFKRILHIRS

COc1cc(OC(F)(F)F)ccc1COc1ccc2c(c1)CCc1c-2nc(N)nc1N1CCN(CCO[C@H]2C[C@@H](C(=O)O)C2)CC1 [Example 207, cis-3-(2-(4-(2-amino-8-((2-methoxy-4-(trifluoromethoxy)benzyl)oxy)-5,6-dihydrobenzo[h]quinazolin-4-yl)piperazin-1-yl)ethoxy)cyclobutane-1-carboxylic acid] showed a Ki [1] of less than 100 nM and a Ki [2] of less than 100 nM.
Work on Cc1cc(OC(F)(F)F)ccc1COc1ccc2c(c1)CCc1c-2nc(N)nc1N1CCN(CCO[C@H]2C[C@@H](C(=O)O)C2)CC1 [Example 208, cis-3-(2-(4-(2-amino-8-((2-methyl-4-(trifluoromethoxy)benzyl)oxy)-5,6-dihydrobenzo[h]quinazolin-4-yl)piperazin-1-yl)ethoxy)cyclobutane-1-carboxylic acid] yielded a Ki [1] of less than 100 nM and a Ki [2] of less than 100 nM.
Compound Nc1nc2c(c(N3CCN(CCO[C@H]4C[C@@H](C(=O)O)C4)CC3)n1)CCc1cc(OCc3ccc(OC(F)F)cc3)ccc1-2 [Example 210, cis-3-(2-(4-(2-amino-8-((4-(difluoromethoxy)benzyl)oxy)-5,6-dihydrobenzo[h]quinazolin-4-yl)piperazin-1-yl)ethoxy)cyclobutane-1-carboxylic acid] has a Ki [1] of less than 100 nM and a Ki [2] of less than 100 nM.
Nc1nc2c(c(N3CCN(CCO[C@H]4C[C@@H](C(=O)O)C4)CC3)n1)CCc1cc(OCc3ccc(SC(F)(F)F)cc3)ccc1-2 [Example 211] showed a Ki [1] of less than 100 nM and a Ki [2] of less than 100 nM.
Nc1nc2c(c(N3CCN(CCO[C@H]4C[C@@H](C(=O)O)C4)CC3)n1)CCc1cc(OCc3ccc(S(=O)(=O)C(F)(F)F)cc3)ccc1-2 [Example 212, cis-3-(2-(4-(2-amino-8-((4-((trifluoromethyl)sulfonyl)benzyl)oxy)-5,6-dihydrobenzo[h]quinazolin-4-yl)piperazin-1-yl)ethoxy)cyclobutane-l-carboxylic acid] gave a Ki [1] of less than 100 nM and a Ki [2] of less than 100 nM.
“cis-3-(2-(4-(2-amino-8-((4-((trifluoromethyl)cyclohexyl)methoxy)-5,6-dihydrobenzo[h]quinazolin-4-yl)piperazin-1-yl)ethoxy)cyclobutane-l-carboxylic acid [Example 215]” gave a Ki [1] of less than 100 nM and a Ki [2] of 100 to 500 nM.
“cis-3-(2-(4-(2-amino-8-((4-cyclopropylbenzyl)oxy)-5,6-dihydrobenzo[h]quinazolin-4-yl)piperazin-1-yl)ethoxy)cyclobutane-l-carboxylic acid [Example 214]” showed a Ki [1] of less than 100 nM and a Ki [2] of less than 100 nM.
Work on “trans-4-((2-(4-(2-amino-8-((4-cyanobenzyl)oxy)-5,6-dihydrobenzo[h]quinazolin-4-yl)piperazin-1-yl)ethoxy)cyclohexane-l-carboxylic acid [Example 213]” yielded a Ki [1] of less than 100 nM and a Ki [2] of 100 to 500 nM.
